# Source: patent US5759785A, “Method of identifying hormone antagonists and agonists” (Baylor College of Medicine, priority 1995, dated 1998)
# Experiments:
# [1] = molecular target: T1, Human ER (Homo sapiens, UniProt P03372); test: Electrophoretic mobility shift assay, translated ER binding to an ERE; format: biochemical; details: 100 nM ligand; 10 mM MgCl2, 37° C.
# T1 sequence (P03372 1-595): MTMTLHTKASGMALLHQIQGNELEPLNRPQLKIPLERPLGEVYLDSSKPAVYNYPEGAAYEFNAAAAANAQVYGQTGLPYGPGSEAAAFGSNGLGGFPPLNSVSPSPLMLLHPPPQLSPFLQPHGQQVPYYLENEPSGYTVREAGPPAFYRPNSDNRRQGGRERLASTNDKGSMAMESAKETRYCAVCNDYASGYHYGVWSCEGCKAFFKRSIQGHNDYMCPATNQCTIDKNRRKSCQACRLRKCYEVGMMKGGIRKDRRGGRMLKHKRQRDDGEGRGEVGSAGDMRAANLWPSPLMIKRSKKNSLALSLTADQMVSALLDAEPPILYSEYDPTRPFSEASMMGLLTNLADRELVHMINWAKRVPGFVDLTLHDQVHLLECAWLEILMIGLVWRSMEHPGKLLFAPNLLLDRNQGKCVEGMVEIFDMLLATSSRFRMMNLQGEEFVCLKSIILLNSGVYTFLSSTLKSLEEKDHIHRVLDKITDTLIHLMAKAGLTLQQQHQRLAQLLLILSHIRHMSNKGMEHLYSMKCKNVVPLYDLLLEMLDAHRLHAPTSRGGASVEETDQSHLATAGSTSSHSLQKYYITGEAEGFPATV
# Protocol: (§1) EMSAs were carried out as previously described (Bagchi et al., Mol. Cell. Biol., 2:1221, 1988), except that 100 ng (PR) or 1 μg (ER) of Poly(dI-dC)(dI-dC) were used as competitor and 10 mM MgCl2 was used when testing estrogen receptor. 4 μl of unlabeled translation mix were used per 10 μl reaction. Proteins were incubated with ligand at room temperature (PR) or 37° C. (ER) for 10 minutes, followed by the addition of DNA and further incubation for 10 minutes. For the experiment in FIG. 2, all incubations were carried out at 30° C. in the presence of 300 U/ml calf intestinal alkaline phosphatase. All mixing was done by gentle vortexing. DNA-protein complexes were resolved on 4% (w/v) gels.
# [2] = test system: ER; details: cited from earlier work
# [3] = test system: A-form human PR; test: Electrophoretic mobility shift assay, in vitro translated PR binding to a PRE; format: biochemical; details: 100 nM ligand (progesterone also 10 nM)
# Protocol: as §1
# Hormone-dependent activity of the in vitro synthesized PR was measured, i.e., its ability to bind DNA specifically was examined by electrophoretic mobility shift assay (EMSA) (FIG. 1A). Unlabeled receptors were incubated with a ^32 P-end-labeled oligonucleotide equivalent to a PRE from the tyrosine aminotransferase gene upstream region.
# [4] = test system: A-form human PR; test: Limited proteolytic digestion of translated PR; format: biochemical; details: 100 nM ligand; for proteolytic fragment pattern / conformational change of PR: trypsin (Org compounds) or subtilisin (R5020); for protease-resistant PR fragment: chymotrypsin, trypsin or subtilisin digestion
# Protocol: (§2) To 5 μl of hormone-treated (10 minutes at room temperature (PR) or 37° C. (ER)) labeled translation mix, 0.5 μl of protease (diluted in water) was added followed by incubation for 10 minutes. The rate of digestion is dependent on the concentration of enzyme used. ER translation mixes were made 10 mM in MgCl2 before hormone addition. 0.5 μl was removed and mixed with 10 μl of denaturing loading dye, boiled for 5 minutes, and immediately loaded on 1.5 mm thick 0.1% (w/v) sodium dodecyl sulphate-12% (w/v) polyacrylamide gels. Denaturing gel electrophoresis was performed as described in Promega's translation handbook. Following electrophoresis, gels were treated with 30% (v/v) methanol/10% (v/v) acetic acid, then with EN^3 HANCE, and were vacuum dried at 60° C. for 30 minutes, followed by 80° C. for 45 minutes. Autoradiography was performed overnight. Promega's rabbit reticulocyte lysates average a protein concentration of 130 mg/ml; 5 μg of protease per ml of translation mix is therefore roughly equivalent to 60 ng of protease per mg of protein.
# Proteolytic analysis is a powerful method for analyzing conformation changes within proteins. [^35 S]methionine-labeled PR was treated with progesterone, Ru38486 or ethanol, then digested for a short period of time with different amounts of various proteases. Digestion products were analyzed by denaturing gel electrophoresis.
# [5] = test system: progesterone action; details: cited from earlier work
# [6] = molecular target: T2, hPR (Homo sapiens, UniProt P06401); test: Bandshift analysis of T47D extract hPR with C-262 antibody supershift; format: biochemical; details: T47D extracts; 100 nM ligand
# T2 sequence (P06401 1-933): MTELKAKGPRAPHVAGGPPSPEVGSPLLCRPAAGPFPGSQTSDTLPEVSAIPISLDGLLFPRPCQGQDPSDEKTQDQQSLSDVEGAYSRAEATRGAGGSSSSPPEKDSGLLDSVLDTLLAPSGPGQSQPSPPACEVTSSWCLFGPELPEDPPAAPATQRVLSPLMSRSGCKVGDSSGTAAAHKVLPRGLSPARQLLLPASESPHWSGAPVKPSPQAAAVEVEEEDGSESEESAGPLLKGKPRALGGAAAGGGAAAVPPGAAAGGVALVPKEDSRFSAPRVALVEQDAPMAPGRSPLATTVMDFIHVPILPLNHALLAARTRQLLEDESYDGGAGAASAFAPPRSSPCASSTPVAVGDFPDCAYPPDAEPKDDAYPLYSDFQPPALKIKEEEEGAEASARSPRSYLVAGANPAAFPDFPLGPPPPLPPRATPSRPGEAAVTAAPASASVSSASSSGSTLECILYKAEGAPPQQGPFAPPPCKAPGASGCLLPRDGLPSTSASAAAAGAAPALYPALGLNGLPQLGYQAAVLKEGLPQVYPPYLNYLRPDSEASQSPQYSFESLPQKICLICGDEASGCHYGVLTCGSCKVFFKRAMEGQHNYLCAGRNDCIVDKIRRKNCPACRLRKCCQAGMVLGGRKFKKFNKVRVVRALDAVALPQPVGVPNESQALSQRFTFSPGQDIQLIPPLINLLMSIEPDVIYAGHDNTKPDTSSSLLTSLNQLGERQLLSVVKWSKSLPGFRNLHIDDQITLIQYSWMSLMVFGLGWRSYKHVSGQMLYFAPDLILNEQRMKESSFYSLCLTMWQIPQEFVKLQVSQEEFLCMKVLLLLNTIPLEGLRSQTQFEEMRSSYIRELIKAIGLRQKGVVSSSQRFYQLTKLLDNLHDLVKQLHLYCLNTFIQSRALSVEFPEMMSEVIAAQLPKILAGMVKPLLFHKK
# Protocol: In panel (A), T47D extracts were treated in vitro with 100 nM progesterone (P, lanes 2, 5, 8, 11 and 13), RU486 (R, lanes 3, 6 and 9) or with an equal amount (0.01% (v/v)) of ethanol carrier (-, lanes 1, 4, 7, 10, 12 and 14), followed by the addition of N-terminal-binding (AB52, lanes 7 to 9 and 14) or C-terminal-binding (C-262, lanes 4 to 13) anti-hPR monoclonal antibodies, or a control anti-cPR antibody (PR22, lanes 1 to 3). […] Binding to a PRE was assessed by bandshift analysis. The positions of specific DNA-protein complexes and of free probe are indicated. (B) The effect of ligands on C-262 supershifting was tested as in (A), except that extracts were treated with 100 nM Org31376 (OI, lanes 3, 7 and 11), Org31806 (OII, lanes 4, 8 and 12) or progesterone (P, lanes 2, 6 and 10).
# A monoclonal antibody (C-262), which was raised against the C-terminal 14 amino acids of PR was used to determine if there was a difference in the accessibility of the epitope when the receptor was bound to an agonist or an antagonist.
# The epitope recognized by C-262 antibody was the C-terminus of the receptor. A peptide corresponding to the C-terminal 14 amino acid tail was preincubated with the antibody prior to addition to the band-shift reaction.
# [7] = test system: retinoic acid receptor (RAR); test: Trypsin digestion of translated RAR; format: biochemical; details: preincubated with 2 μM retinoic acid
# Protocol: as §2
# (§3) The receptors were translated as a polypeptides of predicted molecular weight (FIG. 7A and 7B, lane 1). Trypsin digestion of RAR and TR which had been preincubated with 2 μM retinoic acid and 10^-T MT3 produced a resistant 31 kd fragment, which was not detectable following digestion of carrier-treated receptor (compare lanes 2-6 with lanes 8-12). […]
# [8] = test system: thyroxine receptor (TR); test: Trypsin digestion of translated TR; format: biochemical; details: preincubated with 10^-T MT3
# Protocol: as §2, §3
compound,measurement,setting,value
"CCCCN(C)C(=O)CCCCCCCCCC[C@@H]1Cc2cc(O)ccc2[C@H]2CC[C@]3(C)[C@@H](O)CC[C@H]3[C@H]12 [ICI 164,384]",binding of translated ER to an ERE (EMSA),[1],induces high affinity DNA binding
same,agonistic activity,[2],no detectable agonistic activity
C[C@H]1CC2=CC(=O)CCC2=C2[C@@H]1[C@@H]1CC[C@@]3(CCCO3)[C@@]1(C)C[C@@H]2c1ccc(N(C)C)cc1 [Org 31806],"binding of translated PR to a PRE (specific DNA-protein complex, EMSA)",[3],induce binding of translated PR to a PRE in vitro
same,proteolytic fragment pattern / conformational change of PR,[4],indistinguishable from that induced by Ru38486
same,antagonism of progesterone action in vivo,[5],strongly antagonize progesterone action in vivo
same,recognition (supershift) of ligand-bound hPR-DNA complex by C-262 antibody,[6],resulted in supershifting of PR-DNA complexes
CCC(=O)[C@@]1(C)CC[C@H]2[C@@H]3CCC4=CC(=O)CCC4=C3CC[C@@]21C [R5020],proteolytic fragment pattern / conformational change of PR,[4],R5020 and progesterone induced the same conformational changes
CC#C[C@]1(O)CC[C@H]2[C@@H]3CCC4=CC(=O)CCC4=C3[C@@H](c3ccc(N(C)C)cc3)C[C@@]21C [Ru38486],"binding of translated PR to a PRE (specific DNA-protein complex, EMSA)",[3],promoted binding to the PRE that was at least as strong as that induced by an equal concentration (100 nM) of progesterone
same,protease-resistant PR fragment,[4],27 kd
same,recognition (supershift) of ligand-bound hPR-DNA complex by C-262 antibody,[6],exposed
"C[C@]12CC[C@@H]3c4ccc(O)cc4CC[C@H]3[C@@H]1CC[C@@H]2O [estradiol, 17β-estradiol]","binding of translated PR to a PRE (specific DNA-protein complex, EMSA)",[3],failed to induce a specific complex
CC(=O)[C@H]1CC[C@H]2[C@@H]3CCC4=CC(=O)CC[C@]4(C)[C@H]3CC[C@]12C [progesterone],"binding of translated PR to a PRE (specific DNA-protein complex, EMSA)",[3],Specific DNA-protein complexes were obtained
same,protease-resistant PR fragment,[4],30 kd
same,recognition (supershift) of ligand-bound hPR-DNA complex by C-262 antibody,[6],almost totally prevented recognition of the receptor by C-262 antibody
CC1=C(/C=C/C(C)=C/C=C/C(C)=C/C(=O)O)C(C)(C)CCC1 [retinoic acid],trypsin-resistant RAR fragment,[7],31 kd
thyroxine [T3],trypsin-resistant TR fragment,[8],31 kd
